# Measurements published in patent publication US20260265249A1, “PHARMACEUTICALLY ACCEPTABLE SALT AND CRYSTAL FORM OF 1,4-DIHYDRO-1,6-NAPHTHYRIDINE AMIDE COMPOUND AND PREPARATION METHOD THEREFOR” (JIANGSU HENGRUI PHARMACEUTICALS CO., LTD., priority 2023, published 2026).
# Assays:
# [1] = Long-term/accelerated stability study (sealed in aluminum foil bags, 25° C./60% RH and 40° C./75% RH); assay type: physicochemical; details: for long-term/accelerated stability (conclusion): storage under long-term accelerated conditions for 6 months
# [2] = DVS (dynamic vapor sorption) hygroscopicity test; assay type: physicochemical
# Source text: According to the description of hygroscopicity characteristics and the definitions of hygroscopic weight gains in “General Rule 9103, Guidelines for Hygroscopicity” in the Chinese Pharmacopoeia, Volume IV, 2015 Edition, • deliquescent: sufficient water is absorbed to form a liquid; • extremely hygroscopic: the hygroscopic weight gain is not less than 15%; • hygroscopic: the hygroscopic weight gain is less than 15% but not less than 2%; • slightly hygroscopic: the hygroscopic weight gain is less than 2% but not less than 0.2%; • nonhygroscopic or practically nonhygroscopic: the hygroscopic weight gain is less than 0.2%.
# TGA refers to thermogravimetric analysis: The analysis was performed using a METTLER TOLEDO TGA 2 thermogravimetric analyzer, with a temperature ramp rate of 10° C./min, specific temperature ranges shown in corresponding patterns (mostly 30-350° C.), and a nitrogen purge speed of 50 mL/min. DVS refers to dynamic vapor sorption: The analysis was performed using SMS DVS Advantage; at 25° C., the humidity was changed as follows: 50%-95%-0%-95%-50%, in steps of 10% (5% for the last step) (specific humidity ranges are shown in corresponding patterns, and those listed here were used in most cases); the criterion was dm/dt being not greater than 0.002%.
# [3] = Influencing factor stability study (open containers; light, high temperature, high humidity; 30 days); assay type: physicochemical
# [4] = test system: db/db mice (idiopathic type II diabetes model mice); assay: Efficacy test in db/db mouse model with diabetic nephropathy; assay type: in vivo; details: for mALB compared to the model control group / urine albumin-to-creatinine ratio (UACR) compared to the model control group / urine amount compared to the model control group: after 4 weeks of administration, in words; for UACR / Urine creatinine / Urine weight / mALB: db/db mice, 15 mg/kg i.g. once daily, Mean±SEM
# Source text: Test Example 2: Efficacy Test in db/db Mouse Model with Diabetic Nephropathy
# Thirty db/db mice (idiopathic type II diabetes model mice) were selected and divided into a model control group, a positive control group, and a treatment group, and 10 db/m mice were selected as a control group.
# The mice were given the compounds by oral gavage (i.g) once daily over 4 consecutive weeks. The administration information is shown in detail in Table 2.
# Urine albumin was used as a main measure. The data obtained were analyzed statistically using EXCEL and IBM SPSS Statistics 22.0.
# All metrology data are expressed as Mean±SEM s. The parameters before and after administration were plotted for the different groups of animals using the software Graph Pad Prism 8. Data were analyzed using the statistical software SPSS 22.0. A Levene's test of homogeneity of variance was performed on the parameters. When the variance was homogenous (P≥0.05), the Dunnett's & LSD method from the one-way analysis of variance (ANOVA) was used to compare the differences between the groups. When the variance was not homogenous (P<0.05), the Mann-Whitney U test (the M-W method) from the Kruskal-Wallis H test (the K-W method) was used to compare the differences between the groups. For animal survival, the log-rank test from the product-limit method (the K-M method) was used to compare the differences between the groups.
# [5] = sealed aluminum foil bag, 25° C.-60% RH, 1 month
# [6] = sealed aluminum foil bag, 25° C.-60% RH, 2 months
# [7] = sealed aluminum foil bag, 25° C.-60% RH, 3 months
# [8] = sealed aluminum foil bag, 25° C.-60% RH, 6 months
# [9] = sealed aluminum foil bag, 40° C.-75% RH, 1 month
# [10] = sealed aluminum foil bag, 40° C.-75% RH, 2 months
# [11] = sealed aluminum foil bag, 40° C.-75% RH, 3 months
# [12] = sealed aluminum foil bag, 40° C.-75% RH, 6 months
# [13] = accelerated experimental conditions, 70% RH
# [14] = normal storage conditions, 25° C. and 60% RH
# [15] = open container, 40° C., 1 month
# [16] = open container, 40° C., 14 days
# [17] = open container, 60° C., 1 month
# [18] = open container, 60° C., 14 days
# [19] = open container, 75% RH, 1 month
# [20] = open container, 75% RH, 14 days
# [21] = open container, 92.5% RH, 1 month
# [22] = open container, 92.5% RH, 7 days
# [23] = open container, 92.5% RH, 14 days
# [24] = open container, light exposure (4500 Lux), 1 month
# [25] = open container, light exposure (4500 Lux), 7 days
# [26] = open container, light exposure (4500 Lux), 14 days
# [27] = 4 weeks, ** P<0.01 vs model control group
# [28] = 25° C.-60% RH, sealed aluminum foil bag, 1 month
# [29] = 25° C.-60% RH, sealed aluminum foil bag, 2 months
# [30] = 25° C.-60% RH, sealed aluminum foil bag, 3 months
# [31] = 25° C.-60% RH, sealed aluminum foil bag, 6 months
# [32] = 40° C.-75% RH, sealed aluminum foil bag, 1 month
# [33] = 40° C.-75% RH, sealed aluminum foil bag, 2 months
# [34] = 40° C.-75% RH, sealed aluminum foil bag, 3 months
# [35] = 40° C.-75% RH, sealed aluminum foil bag, 6 months
smiles,measurement,setting,value
[2H]C([2H])([2H])Oc1cc(C#N)ccc1[C@@H]1C(C(N)=O)=C(C)Nc2c(C)cnc(OCC)c21 [crystal form A],Crystal form,[1]; 0 days,Crystal form A
same,Purity,[1]; 0 days,99.7%
same,Crystal form,[1]; [5],No change
same,Purity,[1]; [5],99.7%
same,Crystal form,[1]; [6],No change
same,Purity,[1]; [6],99.7%
same,Crystal form,[1]; [7],No change
same,Purity,[1]; [7],99.7%
same,Crystal form,[1]; [8],No change
same,Purity,[1]; [8],99.7%
same,Crystal form,[1]; [9],No change
same,Purity,[1]; [9],99.7%
same,Crystal form,[1]; [10],No change
same,Purity,[1]; [10],99.6%
same,Crystal form,[1]; [11],No change
same,Purity,[1]; [11],99.6%
same,Crystal form,[1]; [12],No change
same,Purity,[1]; [12],99.5%
same,long-term/accelerated stability (conclusion),[1],good physical and chemical stability
same,hygroscopic weight gain,[2]; [13],about 0.7%
same,crystal form re-identified after the DVS test,[2],did not change
same,hygroscopic weight gain,"[2]; extreme conditions, 90% RH",about 1.5%
same,hygroscopic weight gain,[2]; [14],about 0.5%
same,Crystal form,[3]; 0 days,Crystal form A
same,Purity,[3]; 0 days,99.7%
same,Crystal form,[3]; [15],No change
same,Purity,[3]; [15],99.4%
same,Crystal form,"[3]; open container, 40° C., 7 days",No change
same,Purity,"[3]; open container, 40° C., 7 days",99.6%
same,Crystal form,[3]; [16],No change
same,Purity,[3]; [16],99.6%
same,Crystal form,[3]; [17],No change
same,Purity,[3]; [17],99.4%
same,Crystal form,"[3]; open container, 60° C., 7 days",No change
same,Purity,"[3]; open container, 60° C., 7 days",99.7%
same,Crystal form,[3]; [18],No change
same,Purity,[3]; [18],99.6%
same,Crystal form,[3]; [19],No change
same,Purity,[3]; [19],99.7%
same,Crystal form,"[3]; open container, 75% RH, 7 days",No change
same,Purity,"[3]; open container, 75% RH, 7 days",99.6%
same,Crystal form,[3]; [20],No change
same,Purity,[3]; [20],99.7%
same,Crystal form,[3]; [21],No change
same,Purity,[3]; [21],99.7%
same,Crystal form,[3]; [22],No change
same,Purity,[3]; [22],99.6%
same,Crystal form,[3]; [23],No change
same,Purity,[3]; [23],99.7%
same,Crystal form,[3]; [24],No change
same,Purity,[3]; [24],97.6%
same,Crystal form,[3]; [25],No change
same,Purity,[3]; [25],99.4%
same,Crystal form,[3]; [26],No change
same,Purity,[3]; [26],99.1%
same,stability in the influencing factor experiment (conclusion),"[3]; under other conditions (40° C., 60° C., 75% RH, 92.5% RH)",stable
same,stability in the influencing factor experiment (conclusion),[3]; under the light exposure condition,degraded
[2H]C([2H])([2H])Oc1cc(C#N)ccc1[C@@H]1C(C(N)=O)=C(C)Nc2c(C)cnc(OCC)c21 [Compound 1],mALB compared to the model control group,[4],tended to be lower
same,urine albumin-to-creatinine ratio (UACR) compared to the model control group,[4],statistically significantly smaller
same,urine amount compared to the model control group,[4],tended to be lower
same,UACR,[4]; 0 weeks,5039.91 ± 334.27 µg/mg
same,Urine creatinine,[4]; 0 weeks,0.40 ± 0.01 μmol/24 h
same,Urine weight,[4]; 0 weeks,2.72 ± 0.14 mL
same,mALB,[4]; 0 weeks,224.72 ± 13.19 μg/24 h
same,Urine creatinine,[4]; 4 weeks,2.23 ± 0.39 μmol/24 h
same,Urine weight,[4]; 4 weeks,10.41 ± 2.29 mL
same,mALB,[4]; 4 weeks,870.27 ± 189.40 μg/24 h
same,UACR,[4]; [27],3301.13 ± 330.31** μg/mg
O=C(O)/C=C\C(=O)O.[2H]C([2H])([2H])Oc1cc(C#N)ccc1[C@@H]1C(C(N)=O)=C(C)Nc2c(C)cnc(OCC)c21 [crystal form α of maleate],Purity (%),[1]; 0 days (initial),99.6%
same,Crystal form,[1]; [28],No change
same,Purity (%),[1]; [28],99.8%
same,Crystal form,[1]; [29],No change
same,Purity (%),[1]; [29],99.8%
same,Crystal form,[1]; [30],No change
same,Purity (%),[1]; [30],99.8%
same,Crystal form,[1]; [31],No change
same,Purity (%),[1]; [31],99.6%
same,Crystal form,[1]; [32],No change
same,Purity (%),[1]; [32],99.6%
same,Crystal form,[1]; [33],No change
same,Purity (%),[1]; [33],99.5%
same,Crystal form,[1]; [34],No change
same,Purity (%),[1]; [34],99.3%
same,Crystal form,[1]; [35],No change
same,Purity (%),[1]; [35],98.8%
same,long-term/accelerated stability (conclusion),[1],good physical and chemical stability
same,Crystal form,[3]; 0 days,Crystal form α of maleate
same,Purity,[3]; 0 days,99.6%
same,stability in the influencing factor experiments (conclusion),[3]; at a high temperature,slightly degraded
same,Crystal form,[3]; [15],No change
same,Purity,[3]; [15],97.4%
same,Crystal form,"[3]; open container, 40° C., 7 days",No change
same,Purity,"[3]; open container, 40° C., 7 days",98.9%
same,Crystal form,[3]; [16],No change
same,Purity,[3]; [16],98.4%
same,Crystal form,[3]; [17],No change
same,Purity,[3]; [17],92.2%
same,Crystal form,"[3]; open container, 60° C., 7 days",No change
same,Purity,"[3]; open container, 60° C., 7 days",98.6%
same,Crystal form,[3]; [18],No change
same,Purity,[3]; [18],97.0%
same,Crystal form,[3]; [19],No change
same,Purity,[3]; [19],99.8%
same,Crystal form,"[3]; open container, 75% RH, 7 days",No change
same,Purity,"[3]; open container, 75% RH, 7 days",99.8%
same,Crystal form,[3]; [20],No change
same,Purity,[3]; [20],99.8%
same,Crystal form,[3]; [21],No change
same,Purity,[3]; [21],99.8%
same,Crystal form,[3]; [22],No change
same,Purity,[3]; [22],99.8%
same,Crystal form,[3]; [23],No change
same,Purity,[3]; [23],99.8%
same,Crystal form,[3]; [24],No change
same,Purity,[3]; [24],98.2%
same,Crystal form,[3]; [25],No change
same,Purity,[3]; [25],99.2%
same,Crystal form,[3]; [26],No change
same,Purity,[3]; [26],98.7%
"CCOc1ncc(C)c2c1[C@H](c1ccc(C#N)cc1OC)C(C(N)=O)=C(C)N2 [Finerenone, reference compound]",mALB compared to the model control group,[4],tended to be lower
same,urine albumin-to-creatinine ratio (UACR) compared to the model control group,[4],decreased somewhat but is not significantly different
same,urine amount compared to the model control group,[4],tended to be lower
same,UACR,[4]; 0 weeks,5538.19 ± 342.61 µg/mg
same,Urine creatinine,[4]; 0 weeks,0.37 ± 0.02 μmol/24 h
same,Urine weight,[4]; 0 weeks,2.86 ± 0.17 mL
same,mALB,[4]; 0 weeks,226.68 ± 13.90 μg/24 h
same,Urine creatinine,[4]; 4 weeks,2.11 ± 0.44 μmol/24 h
same,Urine weight,[4]; 4 weeks,11.96 ± 2.89 mL
same,mALB,[4]; 4 weeks,"1,013.76 ± 245.40 μg/24 h"
same,UACR,[4]; [27],4294.14 ± 464.95 µg/mg
Cl.[2H]C([2H])([2H])Oc1cc(C#N)ccc1[C@@H]1C(C(N)=O)=C(C)Nc2c(C)cnc(OCC)c21 [crystal form I of hydrochloride],Purity (%),[1]; 0 days (initial),99.8%
same,Crystal form,[1]; [28],No change
same,Purity (%),[1]; [28],99.3%
same,Crystal form,[1]; [29],No change
same,Purity (%),[1]; [29],99.3%
same,Crystal form,[1]; [30],No change
same,Purity (%),[1]; [30],99.3%
same,Crystal form,[1]; [31],No change
same,Purity (%),[1]; [31],99.3%
same,Crystal form,[1]; [32],No change
same,Purity (%),[1]; [32],99.2%
same,Crystal form,[1]; [33],No change
same,Purity (%),[1]; [33],98.9%
same,Crystal form,[1]; [34],No change
same,Purity (%),[1]; [34],98.8%
same,Crystal form,[1]; [35],No change
same,Purity (%),[1]; [35],98.8%
same,long-term/accelerated stability (conclusion),[1],good physical and chemical stability
same,hygroscopic weight gain,[2]; [13],about 13.7%
same,crystal form re-identified after the DVS test,[2],did not change
same,hygroscopic weight gain,"[2]; extreme conditions, 90% RH",about 37.5%
same,hygroscopic weight gain,[2]; [14],about 3.6%
